According to patent publication US9902702B2, “Spirocycloheptanes as inhibitors of rock” (BRISTOL-MYERS SQUIBB COMPANY, priority 2014, dated 2018):

These compounds were tested against ROCK2 (Homo sapiens, UniProt O75116) (assay: ROCK assay: phosphorylation of FITC peptide substrate, LABCHIP 3000 mobility shift). Details: 5 μM ATP, 1.5 μM peptide substrate; read-out: ROCK2 Activity (ROCK IC50 range).
Type: biochemical
Method: The effectiveness of compounds of the present invention as ROCK inhibitors can be determined in a 30 μL assay containing 20 mM HEPES, pH 7.5, 20 mM MgCl2, 0.015% Brij-35, 4 mM DTT, 5 μM ATP and 1.5 μM peptide substrate (FITC-AHA-AKRRRLSSLRA-OH). Compounds were dissolved in DMSO so that the final concentration of DMSO was <2%, and the reaction was initiated with Rho kinase variants. After incubation, the reaction was terminated by the addition of EDTA and the phosphorylated and non-phosphorylated peptides separated using a LABCHIP® 3000 Reader (Caliper Life Sciences). […] Compounds were tested in dose-response format, and the inhibition of kinase activity was calculated at each concentration of compound. The inhibition data were fit using a curve-fitting program to determine the IC50; i.e., the concentration of compound required to inhibit 50% of kinase activity.
Representative Examples were tested in the ROCK assay described above and found having ROCK inhibitory activity.

Sequence of ROCK2 (O75116 whole entry, species assumed): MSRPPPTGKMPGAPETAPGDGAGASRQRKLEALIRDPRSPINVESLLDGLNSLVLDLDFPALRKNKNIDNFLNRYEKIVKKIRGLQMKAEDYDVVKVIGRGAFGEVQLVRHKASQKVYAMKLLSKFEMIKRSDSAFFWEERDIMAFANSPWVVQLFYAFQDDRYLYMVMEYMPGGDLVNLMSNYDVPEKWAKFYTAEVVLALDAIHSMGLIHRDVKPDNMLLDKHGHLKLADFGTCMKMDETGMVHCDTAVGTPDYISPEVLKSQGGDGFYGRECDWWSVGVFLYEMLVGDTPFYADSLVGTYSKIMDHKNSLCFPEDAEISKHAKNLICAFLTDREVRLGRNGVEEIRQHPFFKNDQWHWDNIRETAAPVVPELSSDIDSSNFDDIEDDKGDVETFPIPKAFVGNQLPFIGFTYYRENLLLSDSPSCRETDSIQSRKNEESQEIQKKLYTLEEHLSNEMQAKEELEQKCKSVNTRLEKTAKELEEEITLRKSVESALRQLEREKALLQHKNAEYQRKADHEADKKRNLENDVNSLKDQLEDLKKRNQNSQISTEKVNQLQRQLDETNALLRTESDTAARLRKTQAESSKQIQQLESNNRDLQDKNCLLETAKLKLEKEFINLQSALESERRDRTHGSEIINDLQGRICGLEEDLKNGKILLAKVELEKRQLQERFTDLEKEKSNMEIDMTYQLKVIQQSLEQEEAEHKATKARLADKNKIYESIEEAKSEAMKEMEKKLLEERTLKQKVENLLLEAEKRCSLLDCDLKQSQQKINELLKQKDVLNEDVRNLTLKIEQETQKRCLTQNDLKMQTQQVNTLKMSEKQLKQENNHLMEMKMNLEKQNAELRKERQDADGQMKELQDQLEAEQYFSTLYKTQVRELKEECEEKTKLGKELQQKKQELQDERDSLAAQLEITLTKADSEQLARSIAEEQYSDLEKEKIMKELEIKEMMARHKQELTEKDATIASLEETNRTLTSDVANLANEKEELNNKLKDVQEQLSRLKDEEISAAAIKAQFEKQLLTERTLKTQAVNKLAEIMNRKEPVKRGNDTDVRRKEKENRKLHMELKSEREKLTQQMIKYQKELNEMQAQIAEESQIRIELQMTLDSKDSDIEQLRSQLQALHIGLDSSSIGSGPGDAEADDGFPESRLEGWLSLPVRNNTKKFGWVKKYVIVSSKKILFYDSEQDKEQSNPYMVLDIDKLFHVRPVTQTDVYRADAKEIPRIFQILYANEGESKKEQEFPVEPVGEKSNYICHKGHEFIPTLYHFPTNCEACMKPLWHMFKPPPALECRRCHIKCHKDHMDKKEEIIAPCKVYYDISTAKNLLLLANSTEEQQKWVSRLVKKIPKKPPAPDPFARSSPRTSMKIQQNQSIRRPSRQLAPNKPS

IC50 [nM]	SMILES
5.1 to 15	Cc1nc(N2CCCC2)sc1C(=O)NC1CC2(C1)CC(c1n[nH]c(=O)c3ccccc13)C2 [Example 35, 4-methyl-N-[(aR)-6-(4-oxo-3,4-dihydrophthalazin-1-yl)spiro[3.3]heptan-2-yl]-2-(pyrrolidin-1-yl)-1,3-thiazole-5-carboxamide]
2.01 to 5	Cc1nc(N2CCC(F)C2)sc1C(=O)NC1CC2(C1)CC(c1n[nH]c(=O)c3ccccc13)C2 [Example 36, 2-[(3S)-3-fluoropyrrolidin-1-yl]-4-methyl-N-[(aR)-6-(4-oxo-3,4-dihydrophthalazin-1-y)spiro[3.3]heptan-2-yl]-1,3-thiazole-5-carboxamide]
5.1 to 15	Cc1nc(N2CCC(F)C2)sc1C(=O)NC1CC2(C1)CC(c1n[nH]c(=O)c3ccccc13)C2 [Example 37, 2-[(3R)-3-fluoropyrrolidin-1-yl]-4-methyl-N-[(aR)-6-(4-oxo-3,4-dihydrophthalazin-1-yl)spiro[3.3]heptan-2-yl]-1,3-thiazole-5-carboxamide]
5.1 to 15	Cc1nc(N2CCC(C#N)C2)sc1C(=O)NC1CC2(C1)CC(c1n[nH]c(=O)c3ccccc13)C2 [Example 38, 2-[(3S)-3-cyanopyrrolidin-1-yl]-4-methyl-N-[(aR)-6-(4-oxo-3,4-dihydrophthalazin-1-yl)spiro[3.3]heptan-2-yl]-1,3-thiazole-5-carboxamide]
5.1 to 15	Cc1nc(N2CCC(C#N)C2)sc1C(=O)NC1CC2(C1)CC(c1n[nH]c(=O)c3ccccc13)C2 [Example 39, 2-[(3R)-3-cyanopyrrolidin-1-yl]-4-methyl-N-[(aR)-6-(4-oxo-3,4-dihydrophthalazin-1-yl)spiro[3.3]heptan-2-yl]-1,3-thiazole-5-carboxamide]
2.01 to 5	Cc1nc(N2CCC3CC32)sc1C(=O)NC1CC2(C1)CC(c1n[nH]c(=O)c3ccccc13)C2 [Example 40, rel-2-[(1S,5R)-2-azabicyclo[3.1.0]hexan-2-yl]-4-methyl-N-[(aR)-6-(4-oxo-3,4-dihydrophthalazin-1-yl)spiro[3.3]heptan-2-yl]-1,3-thiazole-5-carboxamide]
2.01 to 5	Cc1nc(N2CCC(F)(F)C2)sc1C(=O)NC1CC2(C1)CC(c1n[nH]c(=O)c3ccccc13)C2 [Example 41, 2-(3,3-difluoropyrrolidin-1-yl)-4-methyl-N-[(aR)-6-(4-oxo-3,4-dihydrophthalazin-1-yl)spiro[3.3]heptan-2-yl]-1,3-thiazole-5-carboxamide]
15.1 to 100	Cc1nc(NC2CC2)sc1C(=O)NC1CC2(C1)CC(c1n[nH]c(=O)c3ccccc13)C2 [Example 42, 2-(cyclopropylamino)-4-methyl-N-[(aR)-6-(4-oxo-3,4-dihydrophthalazin-1-yl)spiro[3.3]heptan-2-yl]-1,3-thiazole-5-carboxamide]
5.1 to 15	O=c1[nH]nc([C@H]2CC3(C[C@H](Nc4nnc(-c5ccccc5)s4)C3)C2)c2ccccc12 (stereo partly drawn) [Example 43, 4-((aR)-6-((5-Phenyl-1,3,4-thiadiazol-2-yl)amino)spiro[3.3]heptan-2-yl)phthalazin-1(2H)-one(2H)-one]
100 to 2100	O=c1[nH]nc([C@H]2CC3(C[C@H](Nc4ncc(-c5ccccc5)o4)C3)C2)c2ccccc12 (stereo partly drawn) [Example 44, 4-((aR)-6-((5-phenyloxazol-2-yl)amino)spiro[3.3]heptan-2-yl)phthalazin-1(2H)-one(2H)-one]
5.1 to 15	O=c1[nH]nc([C@H]2CC3(C[C@H](Nc4nncc5ccccc45)C3)C2)c2ccccc12 (stereo partly drawn) [Example 45, 4-((aR)-6-(Phthalazin-1-ylamino)spiro[3.3]heptan-2-yl)phthalazin-1(2H)-one(2H)-one]
100 to 2100	O=C(C1CC2(C1)CC(c1n[nH]c(=O)c3ccccc13)C2)N1CCc2ccccc21 (stereo not shown) [Example 46, 4-(6-(Indoline-1-carbonyl)spiro[3.3]heptan-2-yl)phthalazin-1(2H)-one(2H)-one]
100 to 2100	O=C(C1CC2(C1)CC(c1n[nH]c(=O)c3ccccc13)C2)N1Cc2ccccc2C1 (stereo not shown) [Example 47, 4-[6-(2,3-dihydro-1H-isoindole-2-carbonyl)spiro[3.3]heptan-2-yl]-1,2-dihydrophthalazin-1-one]
